Each block holds one substance with its values, some of them ahead of it.
Tests used:
C2C12 cells = test: Fyn mutant assay: GFP-positive myoblasts to myotubes; type: cell-based, mouse; details: five days in differentiation medium
Source text: This example describes the expression of wild type and mutant Fyn proteins to analyse the role of Fyn in Sca-1-mediated myogenesis. Briefly, a 1615 bp fragment of pCMV-FynDN (Ko et al., J. Biol Chem, 277:46085-46092, 2002), containing the full-length, dominant negative K299M mutant of mouse Fyn, was PCR-amplified using primers 5′-TTATGCGGCC GCATGGGCTGTG TGCAATGTAAGG-3′ (SEQ ID NO:7) and 5′-GCATGCATGC TACAGGTTT TCACCAGGTT GG-3′ (SEQ ID NO:8) and cloned into the NotI/SphI sites of pIRES-hrGFP-1a (Stratagene). The pCMV-FynDN plasmid was kindly provided by Marilyn Resh (Sloan-Kettering Cancer Center). Similarly, a 1.6 kb BamHI fragment of Fyn-Y531F (Maulon et al., Oncogene, 20:1964-1972, 2001), containing the full-length, constitutively active Y531F mutant of mouse Fyn, was cloned into the BamHI site of pIRES-hrGFP-1a (Stratagene). The Fyn-Y531F DNA was generously provided by Patrick Auberger (INSERM). […] Expression of mutants and GFP was determined by immunoblot of whole cell lysates from transfected C2C12 cells with anti-Fyn antibody (Santa Cruz Biotechnology), and immunofluorescence detection of GFP in live cells. […] Data was acquired with a Nikon Microphot-FX fluorescence microscope and Spot imaging software. […] The effect of Fyn mutants on cell fusion was measured as the ratio of GFP-positive mononuclear myoblasts to GFP-positive myotubes (cells with 2 or more nuclei).

[1] = target: murine Sca-1 (stem cell antigen-1) (murine) (UniProt P05533); test: cell-based or functional assay
C2C12 myoblasts [2] = test: Myoblast fusion assay in C2C12 cells; type: cell-based, mouse; details: C2C12, differentiation conditions, PIPLC 5 U/ml
Source text: (§1) Actively growing C2C12, Sol8, and L6 skeletal myoblasts (ATCC) were maintained in DMEM with 10%, 20%, or 10% FBS, respectively. QM7 quail skeletal myoblasts (kindly provided by Charles Ordahl, UCSF) were maintained in M199 medium with 10% tryptose phosphate and 10% FBS. Myoblast differentiation was induced by culture of confluent monolayers in DMEM with 1% FBS for C2C12 and Sol8 cells, 2% horse serum for L6 cells, or M199 medium with 10% tryptase phosphate and 0.5% FBS for QM7 cells. For PIPLC treatment, 5 U/ml of PIPLC (Sigma) was added into the culture medium when cells reached confluence, and with daily media changes. […]
(§2) Cells were plated on cover slips, cultured under conditions described above in Example 1, and labeled with BrdU for 60 min using Labeling and Detection Kit I (Roche) according to the manufacturer's instructions. […] Immunofluorescence signals were acquired with a Nikon Microphot-FX fluorescence microscope and Spot imaging software. Nuclei from low-power (10×) images were analyzed to quantitate BrdU incorporation and myoblast fusion. Each culture stage was analyzed in triplicate, with data representing the mean of 10 high-power fields. Cell proliferation was calculated as percent BrdU-positive nuclei per field. Cell fusion was calculated as average number of DAPI staining nuclei per myotube.

C2C12 myoblasts [3] = test: BrdU incorporation (cell proliferation) in C2C12 cells; type: cell-based, mouse; details: C2C12, differentiation conditions, PIPLC 5 U/ml
Source text: as §1, §2

Sol8 murine myoblasts [4] = test: Myoblast fusion assay in Sol8 cells; type: cell-based, mouse; details: Sol8, differentiation conditions, PIPLC 5 U/ml
Source text: as §1, §2

Sol8 murine myoblasts [5] = test: BrdU incorporation in Sol8 cells; type: cell-based, mouse; details: Sol8, differentiation conditions, PIPLC 5 U/ml
Source text: as §1, §2

L6 rat myoblasts [6] = test: Myoblast fusion assay in L6 cells; type: cell-based; details: L6, differentiation conditions, PIPLC 5 U/ml
Source text: as §1, §2

L6 rat myoblasts [7] = test: BrdU incorporation in L6 cells; type: cell-based; details: L6, differentiation conditions, PIPLC 5 U/ml
Source text: as §1, §2

QM7 avian myoblasts [8] = test: Myoblast fusion assay in QM7 cells; type: cell-based, quail; details: QM7, differentiation conditions, PIPLC 5 U/ml
Source text: as §1, §2

QM7 avian myoblasts [9] = test: BrdU incorporation in QM7 cells; type: cell-based, quail; details: QM7, differentiation conditions, PIPLC 5 U/ml
Source text: as §1, §2

Sca-1 = Sca-1 expression by immunoblot and immunostaining; type: cell-based, mouse; details: C2C12 cells
Experimental: Immunoblot analysis was performed using previously described methods (Hlaing et al., J Biol Chem, 277:23794-23799, 2002). Briefly, cells were lysed by sonication in lysis buffer (50 mM Tris-HCl, pH 7.5, 150 mM NaCl, 3 mM EDTA, 3 mM EGTA, 1% SDS, 10% glycerol), boiled for 5 min, and centrifuged at 16,000×g for 2 min. Protein concentrations of supernatants were measured by BCA assay (Pierce), and equal amounts of protein (100-200 μg) were separated by SDS-polyacrylamide gel electrophoresis. Immunoblots were analyzed with 5 μg/ml monoclonal antibody against Sca-1 (Pharmingen) or β-actin (Sigma), and 1 μg/ml HRP-conjugated goat-anti mouse IgG (Bio-Rad).
To detect Sca-1, Myf5, MyoD, and myogenin in situ, wild type and stably transfected C2C12 cells were plated on cover slips, grown as described for the indicated lengths of time, and stained with either 2.5 μg/ml monoclonal anti-Sca-1 antibody (clone E13-161.7; Pharmingen) and 4 μg/ml FITC-conjugated goat anti-rat IgG (Pharmingen), or 10 μg/ml rabbit polyclonal anti-Myf5, anti-MyoD, or anti-myogenin antibody (Santa Cruz Biotechnology) and 2 μg/ml FITC-conjugated goat anti-rabbit IgG (Molecular Probes), as previously described (Liu et al., Cell Biochem Biophys, 39:119-131, 2003).

Chain of UniProt P05533 (P05533 27-112 limits assumed): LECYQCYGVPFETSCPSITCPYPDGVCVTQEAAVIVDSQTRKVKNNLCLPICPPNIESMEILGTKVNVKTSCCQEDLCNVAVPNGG

Substance: constitutively active form of Fyn: Full-length constitutively active Y531F mutant of mouse Fyn, co-expressed with GFP from pIRES-hrGFP-1a
ratio of transfected myoblasts to myotubes (C2C12 cells; wild type C2C12 cells): 4.9+/−1.7

Substance: dominant-negative mutant of Fyn: Full-length dominant negative K299M mutant of mouse Fyn, co-expressed with GFP from pIRES-hrGFP-1a
ratio of transfected myoblasts to myotubes (C2C12 cells; Sca-1 antisense-expressing cells): 2.3+/−0.7

BrdU positive nuclei (proliferation), E13-161.7 and D7 in combination versus untreated (% BrdU positive nuclei) [1]: 11
nuclei per myotube (myoblast fusion), E13-161.7 and D7 in combination versus untreated (nuclei per myotube) [1]: 14
Substance: monoclonal anti-Sca-1 antibody, clone D7 (Pharmingen)

BrdU positive nuclei (proliferation), E13-161.7 and D7 in combination versus untreated (% BrdU positive nuclei) [1]: 11
nuclei per myotube (myoblast fusion), E13-161.7 and D7 in combination versus untreated (nuclei per myotube) [1]: 14
Substance: monoclonal rat anti-Sca-1 antibody, clone E13-161.7 (Pharmingen)

Substance: phosphatidylinositol-specific phospholipase-C [PIPLC]
myoblast fusion (C2C12 myoblasts [2]): 3±1 nuclei/myotube
BrdU incorporation (C2C12 myoblasts [3]): 37±2 % BrdU positive nuclei
myoblast fusion (Sol8 murine myoblasts [4]): 5±1 nuclei/myotube
BrdU incorporation (Sol8 murine myoblasts [5]): 18±2 % BrdU positive nuclei
myoblast fusion (L6 rat myoblasts [6]): 2±1 nuclei/myotube
BrdU incorporation (L6 rat myoblasts [7]): 20±2 % BrdU positive nuclei
myoblast fusion (QM7 avian myoblasts [8]): 1±0.2 nuclei/myotube
BrdU incorporation (QM7 avian myoblasts [9]): 48±5 % BrdU positive nuclei
removal of Sca-1 from cell surface (Sca-1): strips Sca-1 from the surface

Source: patent US20050260202A1, “Methods for producing proliferating muscle cells” (The Regents of the University of California, priority 2004, published 2005)
